# Measured values from ChEMBL document CHEMBL1138648, “Synthesis of new N-(2-(trifluoromethyl)pyridin-4-yl)anthranilic acid derivatives and their evaluation as anticancer agents” (2004).
# Assays:
# Format in all cases: functional
# NCI-H460 [1] = experiment: In vitro percent of proliferation of vehicle treated NCI-H460 human lung cell lines was determined at 0.0010 M concentration
# SF-268 [2] = experiment: In vitro percent of proliferation of vehicle treated SF-268 human CNS cell lines was determined at 0.0010 M concentration
# MCF7 [3] = experiment: In vitro percent of proliferation of vehicle treated MCF-7 human breast cell lines was determined at 0.0010 M concentration
# OVCAR-3 = experiment: Growth inhibitory activity against Ovarian cancer OVCAR-3 cell line was determined; details: Homo sapiens
# MDA-MB-435 = experiment: Growth inhibitory activity against Breast cancer MDA-MB-435 cell line was determined; details: Homo sapiens
# SF-268 [4] = experiment: Growth inhibitory activity against CNS cancer SF-268 cell line was determined; details: Homo sapiens
# SF-295 = experiment: Growth inhibitory activity against CNS cancer SF-295 cell line was determined; details: Homo sapiens
# RXF 393 = experiment: Growth inhibitory activity against Renal cancer RXF 393 cell line was determined; details: Homo sapiens
# M14 = experiment: Growth inhibitory activity against Melanoma M14 cell line was determined; details: Homo sapiens
# HOP-62 = experiment: Growth inhibitory activity against non small cell lung cancer HOP-62 cell line was determined; details: Homo sapiens
# LOX IMVI = experiment: Growth inhibitory activity against Melanoma LOX IMVI cell line; details: Homo sapiens
# HCT-15 = experiment: Growth inhibitory activity against colon cancer HCT-15 cell line was determined; details: Homo sapiens
# NCI-H226 = experiment: Growth inhibitory activity against non small cell lung cancer NCI-H226 cell line was determined; details: Homo sapiens
# PC-3 = experiment: Growth inhibitory activity against Prostate cancer PC-3 cell line was determined; details: Homo sapiens
# OVCAR-8 = experiment: Growth inhibitory activity against Ovarian cancer OVCAR-8 cell line was determined; details: Homo sapiens
# HT-29 = experiment: Growth inhibitory activity against colon cancer HT-29 cell line was determined; details: Homo sapiens
# SNB-19 = experiment: Growth inhibitory activity against CNS cancer SNB-19 cell line was determined; details: Homo sapiens
# NCI-H522 = experiment: Growth inhibitory activity against non small cell lung cancer H522 cell line was determined; details: Homo sapiens
# COLO 205 = experiment: Growth inhibitory activity against colon cancer COLO 205 cell line was determined; details: Homo sapiens
# EKVX = experiment: Growth inhibitory activity against non small cell lung cancer EKVX cell line was determined; details: Homo sapiens
# HOP-92 = experiment: Growth inhibitory activity against non small cell lung cancer HOP-92 cell line was determined; details: Homo sapiens
# SN12C = experiment: Growth inhibitory activity against Renal cancer SN12C cell line was determined; details: Homo sapiens
# MDA-MB-231 = experiment: Growth inhibitory activity against Breast cancer MDA-MB-231/ATCC cell line was determined; details: Homo sapiens
# SK-MEL-5 = experiment: Growth inhibitory activity against Melanoma SK-MEL-5 cell line was determined; details: Homo sapiens
# RPMI-8226 = experiment: Growth inhibitory activity against Leukemia RPMI-8226 cell line was determined; details: Homo sapiens
# NCI-H322M = experiment: Growth inhibitory activity against non small cell lung cancer NCI-H322M cell line was determined; details: Homo sapiens
# KM12 = experiment: Growth inhibitory activity against colon cancer KM12 cell line was determined; details: Homo sapiens
# HL-60 = experiment: Growth inhibitory activity against Leukemia HL-60(TB) cell line was determined; details: Homo sapiens
# NCI-H460 [5] = experiment: Growth inhibitory activity against non small cell lung cancer H460 cell line was determined; details: Homo sapiens
# U-251 = experiment: Growth inhibitory activity against CNS cancer U251 cell line was determined; details: Homo sapiens
# MOLT-4 = experiment: Growth inhibitory activity against Leukemia MOLT-4 cell line was determined; details: Homo sapiens
# UACC-62 = experiment: Growth inhibitory activity against Melanoma UACC-62 cell line was determined; details: Homo sapiens
# A549 = experiment: Growth inhibitory activity against non small cell lung cancer A549/ATCC cells; details: Homo sapiens
# K562 = experiment: Growth inhibitory activity against Leukemia K-562 cell line was determined; details: Homo sapiens
# SK-MEL-28 = experiment: Growth inhibitory activity against Melanoma SK-MEL-28 cell line was determined; details: Homo sapiens
# TK-10 = experiment: Growth inhibitory activity against Renal cancer TK-10 cell line was determined; details: Homo sapiens
# 786-0 = experiment: Growth inhibitory activity against Renal cancer 786-0 cell line was determined; details: Homo sapiens
# CAKI-1 = experiment: Growth inhibitory activity against Renal cancer CAKI-1 cell line was determined; details: Homo sapiens
# HCT-116 = experiment: Growth inhibitory activity against colon cancer HCT116 cell line was determined; details: Homo sapiens
# UACC-257 = experiment: Growth inhibitory activity against Melanoma UACC-257 cell line was determined; details: Homo sapiens
# NCI-H23 = experiment: Growth inhibitory activity against non small cell lung cancer NCI-H23 cell line was determined; details: Homo sapiens
# SW-620 = experiment: Growth inhibitory activity against colon cancer SW-620 cell line was determined; details: Homo sapiens
# ACHN = experiment: Growth inhibitory activity against Renal cancer ACHN cell line was determined; details: Homo sapiens
# MCF7 [6] = experiment: Growth inhibitory activity against Breast cancer MCF-7 cell line was determined; details: Homo sapiens
# OVCAR-5 = experiment: Growth inhibitory activity against Ovarian cancer OVCAR-5 cell line was determined; details: Homo sapiens
# BT-549 = experiment: Growth inhibitory activity against Breast cancer BT-549 cell line was determined; details: Homo sapiens
# Hs-578T = experiment: Growth inhibitory activity against Breast cancer HS 578T cell line was determined; details: Homo sapiens
# SR = experiment: Growth inhibitory activity against Leukemia SR cell line was determined; details: Homo sapiens
# CCRF-CEM = experiment: Growth inhibitory activity against Leukemia CCRF-CEM cell line was determined; details: Homo sapiens
# SF-539 = experiment: Growth inhibitory activity against CNS cancer SF-539 cell line was determined; details: Homo sapiens
# DU-145 = experiment: Growth inhibitory activity against Prostate cancer DU-145 cell line was determined; details: Homo sapiens
# HCC 2998 = experiment: Growth inhibitory activity against colon cancer HCC2998 cell line was determined; details: Homo sapiens
# NCI/ADR-RES = experiment: Growth inhibitory activity against Breast cancer NCI/ADR-RES cell line was determined; details: Homo sapiens
compound,measurement,setting,value
O=C(O)c1ccccc1Nc1ccnc(C(F)(F)F)c1,Proliferation,NCI-H460 [1],100%
same,Proliferation,SF-268 [2],102%
same,Proliferation,MCF7 [3],105%
COc1cccc(OC(=O)c2ccccc2Nc2ccnc(C(F)(F)F)c2)c1,GI50,OVCAR-3,1.6 µM
same,GI50,MDA-MB-435,1000 nM
same,GI50,SF-268 [4],4.7 µM
same,GI50,SF-295,2.5 µM
same,GI50,RXF 393,21 µM
same,GI50,M14,1300 nM
same,GI50,HOP-62,2800 nM
same,Proliferation,NCI-H460 [1],13%
same,GI50,LOX IMVI,1100 nM
same,GI50,HCT-15,2800 nM
same,GI50,NCI-H226,8.1 µM
same,GI50,PC-3,3.2 µM
same,GI50,OVCAR-8,3.6 µM
same,GI50,HT-29,3.7 µM
same,GI50,SNB-19,3.5 µM
same,GI50,NCI-H522,7.6 µM
same,GI50,COLO 205,2.2 µM
same,GI50,EKVX,6.6 µM
same,GI50,HOP-92,5.7 µM
same,GI50,SN12C,5.4 µM
same,GI50,MDA-MB-231,2100 nM
same,Proliferation,SF-268 [2],43%
same,GI50,SK-MEL-5,2200 nM
same,GI50,RPMI-8226,1000 nM
same,GI50,NCI-H322M,7.4 µM
same,GI50,KM12,2.6 µM
same,GI50,HL-60,2.1 µM
same,GI50,NCI-H460 [5],4.1 µM
same,GI50,U-251,2900 nM
same,GI50,MOLT-4,690 nM
same,Proliferation,MCF7 [3],42%
same,GI50,UACC-62,3100 nM
same,GI50,A549,3.2 µM
same,GI50,K562,740 nM
same,GI50,SK-MEL-28,12 µM
same,GI50,TK-10,11 µM
same,GI50,786-0,3.4 µM
same,GI50,CAKI-1,2700 nM
same,GI50,HCT-116,1100 nM
same,GI50,UACC-257,5.4 µM
same,GI50,NCI-H23,2000 nM
same,GI50,SW-620,4.4 µM
same,GI50,ACHN,3400 nM
same,GI50,MCF7 [6],7.6 µM
same,GI50,OVCAR-5,3.5 µM
same,GI50,BT-549,8.1 µM
same,GI50,Hs-578T,4.9 µM
COCCCNC(=O)c1ccccc1Nc1ccnc(C(F)(F)F)c1,Proliferation,NCI-H460 [1],105%
same,Proliferation,SF-268 [2],97%
same,Proliferation,MCF7 [3],70%
O=C(Nc1ccncc1)c1ccccc1Nc1ccnc(C(F)(F)F)c1,Proliferation,NCI-H460 [1],99%
same,Proliferation,SF-268 [2],96%
same,Proliferation,MCF7 [3],79%
O=C(Oc1cccc(Cl)c1)c1ccccc1Nc1ccnc(C(F)(F)F)c1,GI50,OVCAR-3,3.8 µM
same,GI50,MDA-MB-435,3000 nM
same,GI50,SF-268 [4],3 µM
same,GI50,SF-295,18 µM
same,GI50,M14,1800 nM
same,GI50,HOP-62,25000 nM
same,Proliferation,NCI-H460 [1],3%
same,GI50,HCT-15,3700 nM
same,GI50,NCI-H226,2.1 µM
same,GI50,PC-3,7.4 µM
same,GI50,OVCAR-8,3.5 µM
same,GI50,NCI-H522,4.2 µM
same,GI50,EKVX,22 µM
same,GI50,SR,440 nM
same,GI50,HOP-92,8.7 µM
same,GI50,SN12C,3 µM
same,GI50,MDA-MB-231,1700 nM
same,GI50,CCRF-CEM,890 nM
same,Proliferation,SF-268 [2],5%
same,GI50,SK-MEL-5,2600 nM
same,GI50,RPMI-8226,1800 nM
same,GI50,NCI-H322M,23 µM
same,GI50,KM12,9.5 µM
same,GI50,HL-60,13 µM
same,GI50,NCI-H460 [5],11 µM
same,GI50,MOLT-4,930 nM
same,Proliferation,MCF7 [3],12%
same,GI50,UACC-62,2000 nM
same,GI50,A549,18 µM
same,GI50,SF-539,2800 nM
same,GI50,K562,3200 nM
same,GI50,DU-145,14 µM
same,GI50,HCC 2998,3.5 µM
same,GI50,TK-10,85 µM
same,GI50,786-0,3.5 µM
same,GI50,CAKI-1,2100 nM
same,GI50,HCT-116,1600 nM
same,GI50,NCI-H23,2400 nM
same,GI50,SW-620,4.4 µM
same,GI50,MCF7 [6],4.8 µM
same,GI50,OVCAR-5,14 µM
same,GI50,BT-549,6.8 µM
same,GI50,NCI/ADR-RES,2200 nM
same,GI50,Hs-578T,21 µM
O=C(Nc1ccccn1)c1ccccc1Nc1ccnc(C(F)(F)F)c1,Proliferation,NCI-H460 [1],86%
same,Proliferation,SF-268 [2],94%
same,Proliferation,MCF7 [3],66%
O=C(Oc1c(Cl)cc(Cl)cc1Cl)c1ccccc1Nc1ccnc(C(F)(F)F)c1,GI50,OVCAR-3,4.3 µM
same,GI50,MDA-MB-435,1600 nM
same,GI50,SF-268 [4],3.9 µM
same,GI50,SF-295,4.2 µM
same,GI50,RXF 393,9.5 µM
same,GI50,M14,2100 nM
same,GI50,HOP-62,2700 nM
same,Proliferation,NCI-H460 [1],9%
same,GI50,LOX IMVI,2000 nM
same,GI50,HCT-15,2700 nM
same,GI50,NCI-H226,5.9 µM
same,GI50,PC-3,15 µM
same,GI50,OVCAR-8,3 µM
same,GI50,HT-29,4.6 µM
same,GI50,SNB-19,7.1 µM
same,GI50,NCI-H522,5.7 µM
same,GI50,COLO 205,6.3 µM
same,GI50,EKVX,3.3 µM
same,GI50,HOP-92,100 µM
same,GI50,SN12C,3.1 µM
same,GI50,MDA-MB-231,3200 nM
same,Proliferation,SF-268 [2],55%
same,GI50,SK-MEL-5,3100 nM
same,GI50,NCI-H322M,20 µM
same,GI50,KM12,4.1 µM
same,GI50,HL-60,3.9 µM
same,GI50,NCI-H460 [5],3.4 µM
same,GI50,U-251,3000 nM
same,GI50,MOLT-4,100000 nM
same,Proliferation,MCF7 [3],12%
same,GI50,UACC-62,1700 nM
same,GI50,A549,3.9 µM
same,GI50,K562,2400 nM
same,GI50,SK-MEL-28,24 µM
same,GI50,TK-10,3.4 µM
same,GI50,786-0,2.9 µM
same,GI50,CAKI-1,7100 nM
same,GI50,HCT-116,1700 nM
same,GI50,UACC-257,12 µM
same,GI50,NCI-H23,2600 nM
same,GI50,SW-620,4.6 µM
same,GI50,ACHN,2400 nM
same,GI50,MCF7 [6],4.7 µM
same,GI50,OVCAR-5,4.1 µM
same,GI50,BT-549,2.4 µM
same,GI50,Hs-578T,2.6 µM
